The record followed here is ChEMBL document CHEMBL1221287 (Bioorg Med Chem Lett, 2010).

Some targets named below: Carbonic anhydrase 13 (Homo sapiens, UniProt Q8N1Q1); Carbonic anhydrase 7 (Homo sapiens, UniProt P43166); Carbonic anhydrase 1 (Homo sapiens, UniProt P00915); Carbonic anhydrase 2 (Homo sapiens, UniProt P00918); Carbonic anhydrase 14 (Homo sapiens, UniProt Q9ULX7); Carbonic anhydrase 9 (Homo sapiens, UniProt Q16790); Carbonic anhydrase 3 (Homo sapiens, UniProt P07451); Carbonic anhydrase 12 (Homo sapiens, UniProt O43570); Carbonic anhydrase 6 (Homo sapiens, UniProt P23280); Carbonic anhydrase 4 (Homo sapiens, UniProt P22748).

In test [1] the target is Carbonic anhydrase 5A, mitochondrial (Homo sapiens, UniProt P35218).
Chain of Carbonic anhydrase 5A, mitochondrial (P35218 whole entry): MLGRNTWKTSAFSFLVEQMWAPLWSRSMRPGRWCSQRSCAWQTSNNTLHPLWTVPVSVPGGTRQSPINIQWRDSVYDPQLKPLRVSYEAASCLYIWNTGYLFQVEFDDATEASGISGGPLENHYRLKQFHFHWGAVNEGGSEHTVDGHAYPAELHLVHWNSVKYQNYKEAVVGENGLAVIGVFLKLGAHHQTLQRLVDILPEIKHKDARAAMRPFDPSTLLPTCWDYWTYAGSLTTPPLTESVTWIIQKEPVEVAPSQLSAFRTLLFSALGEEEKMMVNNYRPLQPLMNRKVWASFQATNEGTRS
Description: Inhibition of human carbonic anhydrase 5a after 15 mins by stopped flow CO2 hydration method
The target in test [2] is Carbonic anhydrase 5B, mitochondrial (Homo sapiens, UniProt Q9Y2D0).
Chain of Carbonic anhydrase 5B, mitochondrial (Q9Y2D0 whole entry): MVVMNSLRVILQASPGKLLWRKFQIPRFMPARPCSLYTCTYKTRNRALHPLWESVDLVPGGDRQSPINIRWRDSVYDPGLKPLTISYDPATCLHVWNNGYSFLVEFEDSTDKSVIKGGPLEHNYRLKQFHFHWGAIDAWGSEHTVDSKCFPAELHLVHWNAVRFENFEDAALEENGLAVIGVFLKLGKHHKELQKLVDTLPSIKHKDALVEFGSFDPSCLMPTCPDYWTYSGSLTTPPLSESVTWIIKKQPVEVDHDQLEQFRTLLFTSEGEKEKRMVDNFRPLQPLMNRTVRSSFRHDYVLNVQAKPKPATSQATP
Description: Inhibition of human carbonic anhydrase 5b after 15 mins by stopped flow CO2 hydration method
In another test the target is T1, Carbonic anhydrase 15 (Mus musculus, UniProt Q99N23).
T1 sequence (Q99N23 whole entry): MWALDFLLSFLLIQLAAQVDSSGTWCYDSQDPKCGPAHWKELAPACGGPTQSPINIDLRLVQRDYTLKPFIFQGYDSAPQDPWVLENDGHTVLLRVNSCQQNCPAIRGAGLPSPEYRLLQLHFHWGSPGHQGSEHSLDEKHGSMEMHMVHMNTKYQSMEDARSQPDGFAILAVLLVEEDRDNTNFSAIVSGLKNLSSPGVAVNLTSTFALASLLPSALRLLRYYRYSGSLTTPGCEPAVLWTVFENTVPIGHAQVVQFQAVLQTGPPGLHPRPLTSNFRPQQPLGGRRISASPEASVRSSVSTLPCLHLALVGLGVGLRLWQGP

Chain of Carbonic anhydrase 14 (Q9ULX7 whole entry): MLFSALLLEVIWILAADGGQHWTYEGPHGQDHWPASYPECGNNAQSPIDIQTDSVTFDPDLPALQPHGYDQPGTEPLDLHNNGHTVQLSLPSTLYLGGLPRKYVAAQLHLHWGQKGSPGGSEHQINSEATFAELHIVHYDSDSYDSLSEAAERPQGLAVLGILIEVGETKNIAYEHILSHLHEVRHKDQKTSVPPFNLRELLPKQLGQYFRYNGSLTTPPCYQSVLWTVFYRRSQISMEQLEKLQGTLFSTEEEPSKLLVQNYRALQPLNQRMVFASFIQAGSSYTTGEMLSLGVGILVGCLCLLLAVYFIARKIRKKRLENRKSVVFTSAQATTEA
Chain of Carbonic anhydrase 3 (P07451 whole entry): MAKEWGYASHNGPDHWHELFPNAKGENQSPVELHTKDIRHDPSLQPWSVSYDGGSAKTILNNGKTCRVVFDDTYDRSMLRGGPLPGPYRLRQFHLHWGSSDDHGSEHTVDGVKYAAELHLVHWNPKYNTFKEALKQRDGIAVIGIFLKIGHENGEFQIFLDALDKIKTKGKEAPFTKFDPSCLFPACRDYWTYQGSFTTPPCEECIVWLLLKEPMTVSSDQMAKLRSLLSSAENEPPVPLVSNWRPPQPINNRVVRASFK
Chain of Carbonic anhydrase 6 (P23280 whole entry): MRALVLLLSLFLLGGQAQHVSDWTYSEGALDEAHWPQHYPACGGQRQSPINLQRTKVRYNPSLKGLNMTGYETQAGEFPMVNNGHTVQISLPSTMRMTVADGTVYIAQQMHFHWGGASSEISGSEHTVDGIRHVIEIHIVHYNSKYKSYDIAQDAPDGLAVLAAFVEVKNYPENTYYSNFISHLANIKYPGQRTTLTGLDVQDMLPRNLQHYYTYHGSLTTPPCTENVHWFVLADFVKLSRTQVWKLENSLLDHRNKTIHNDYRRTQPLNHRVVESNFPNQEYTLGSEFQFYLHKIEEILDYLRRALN
Chain of Carbonic anhydrase 7 (P43166 whole entry): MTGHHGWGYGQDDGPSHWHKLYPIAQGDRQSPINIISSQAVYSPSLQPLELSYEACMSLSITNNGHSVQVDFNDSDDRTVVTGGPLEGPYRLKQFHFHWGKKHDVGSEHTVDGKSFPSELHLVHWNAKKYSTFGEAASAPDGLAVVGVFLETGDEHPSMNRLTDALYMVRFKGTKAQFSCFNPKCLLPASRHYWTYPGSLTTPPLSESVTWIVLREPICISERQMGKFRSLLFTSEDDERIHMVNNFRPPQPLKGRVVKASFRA
Chain of Carbonic anhydrase 13 (Q8N1Q1 whole entry): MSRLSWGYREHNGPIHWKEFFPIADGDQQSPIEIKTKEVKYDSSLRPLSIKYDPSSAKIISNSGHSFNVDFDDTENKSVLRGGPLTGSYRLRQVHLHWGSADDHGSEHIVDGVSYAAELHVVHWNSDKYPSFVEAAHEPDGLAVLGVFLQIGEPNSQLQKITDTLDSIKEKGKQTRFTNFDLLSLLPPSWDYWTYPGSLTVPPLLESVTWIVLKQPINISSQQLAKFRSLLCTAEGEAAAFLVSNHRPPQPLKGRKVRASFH
Chain of Carbonic anhydrase 12 (O43570 whole entry): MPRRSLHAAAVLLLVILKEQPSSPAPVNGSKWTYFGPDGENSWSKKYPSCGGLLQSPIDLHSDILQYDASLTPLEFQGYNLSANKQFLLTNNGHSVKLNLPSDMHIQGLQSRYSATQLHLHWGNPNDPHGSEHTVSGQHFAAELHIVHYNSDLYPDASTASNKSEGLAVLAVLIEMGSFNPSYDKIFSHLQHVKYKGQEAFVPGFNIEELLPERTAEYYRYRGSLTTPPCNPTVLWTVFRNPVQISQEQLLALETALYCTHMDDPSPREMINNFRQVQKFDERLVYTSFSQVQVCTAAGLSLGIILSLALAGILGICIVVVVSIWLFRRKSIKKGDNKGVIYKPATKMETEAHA
Chain of Carbonic anhydrase 4 (P22748 whole entry): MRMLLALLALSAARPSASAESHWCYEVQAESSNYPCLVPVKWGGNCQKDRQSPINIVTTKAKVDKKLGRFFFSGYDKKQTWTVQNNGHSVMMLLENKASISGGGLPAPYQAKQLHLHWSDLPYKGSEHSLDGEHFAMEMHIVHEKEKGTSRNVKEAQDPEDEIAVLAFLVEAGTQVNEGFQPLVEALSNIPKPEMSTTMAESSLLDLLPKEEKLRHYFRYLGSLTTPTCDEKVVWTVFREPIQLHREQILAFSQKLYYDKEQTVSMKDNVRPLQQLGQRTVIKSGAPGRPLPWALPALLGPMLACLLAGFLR
Chain of Carbonic anhydrase 1 (P00915 whole entry): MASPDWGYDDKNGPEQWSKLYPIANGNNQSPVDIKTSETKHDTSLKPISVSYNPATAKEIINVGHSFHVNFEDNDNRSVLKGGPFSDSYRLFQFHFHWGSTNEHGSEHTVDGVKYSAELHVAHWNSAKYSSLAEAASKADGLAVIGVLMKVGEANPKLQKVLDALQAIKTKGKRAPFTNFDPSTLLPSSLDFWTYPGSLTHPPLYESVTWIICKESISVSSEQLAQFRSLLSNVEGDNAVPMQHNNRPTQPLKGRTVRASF
Description for Carbonic anhydrase 12: Inhibition of human carbonic anhydrase 12 after 15 mins by stopped flow CO2 hydration method
Description for Carbonic anhydrase 13: Inhibition of human carbonic anhydrase 13 after 15 mins by stopped flow CO2 hydration method
Description for Carbonic anhydrase 14: Inhibition of human carbonic anhydrase 14 after 15 mins by stopped flow CO2 hydration method
Description for Carbonic anhydrase 15: Inhibition of mouse carbonic anhydrase 15 after 15 mins by stopped flow CO2 hydration method
Description for Carbonic anhydrase 2: Inhibition of human carbonic anhydrase 2 after 15 mins by stopped flow CO2 hydration method
Description for Carbonic anhydrase 3: Inhibition of human carbonic anhydrase 3 after 15 mins by stopped flow CO2 hydration method
Description for Carbonic anhydrase 4: Inhibition of human carbonic anhydrase 4 after 15 mins by stopped flow CO2 hydration method
Description for Carbonic anhydrase 6: Inhibition of human carbonic anhydrase 6 after 15 mins by stopped flow CO2 hydration method
Description for Carbonic anhydrase 7: Inhibition of human carbonic anhydrase 7 after 15 mins by stopped flow CO2 hydration method
Description for Carbonic anhydrase 9: Inhibition of human carbonic anhydrase 9 after 15 mins by stopped flow CO2 hydration method

The term Ki denotes a measure of affinity in units of concentration, obtained from inhibition or displacement. As to `Oc1ccccc1` [PHENOL], the Ki on Carbonic anhydrase 13 amounted to 697 µM.

Take `O=C(O)/C=C/c1ccccc1O` [O-COUMARIC ACID]: the Ki was above 1000 µM in [1]; above 1000 µM at Carbonic anhydrase 7; 3.1 µM at Carbonic anhydrase 1; 9.2 µM at Carbonic anhydrase 2; above 1000 µM at Carbonic anhydrase 14; above 1000 µM on Carbonic anhydrase 9. The Ki on Carbonic anhydrase 13 was above 1000 µM; on Carbonic anhydrase 3, above 1000 µM; on Carbonic anhydrase 12, above 1000 µM; in test [2], 578 µM; at Carbonic anhydrase 6, above 1000 µM; at Carbonic anhydrase 15, above 1000 µM. This compound showed a Ki on Carbonic anhydrase 4 of 62.3 µM.

Turning to `COc1cc(/C=C/C(=O)CC(=O)/C=C/c2ccc(O)c(OC)c2)ccc1O` [CURCUMIN], the Ki in test [1] worked out at 10.2 µM; on Carbonic anhydrase 7, 9.3 µM; at Carbonic anhydrase 14 it was 11.7 µM; at Carbonic anhydrase 9, 4.05 µM; on Carbonic anhydrase 13, 6.85 µM; on Carbonic anhydrase 3, 11.3 µM. Besides, the Ki at Carbonic anhydrase 12 came out at 3.48 µM; in test [2] it was 9.46 µM; on Carbonic anhydrase 6, 9.94 µM; at Carbonic anhydrase 15, 5.09 µM; on Carbonic anhydrase 4 it was 4.97 µM.

For the compound `Oc1cc(O)c2c(c1)O[C@H](c1ccc(O)c(O)c1)[C@@H](O)C2` [CATECHIN], the Ki in test [1] was determined as 4.21 µM; on Carbonic anhydrase 7 it was 0.45 µM; at Carbonic anhydrase 1, 2.42 µM; on Carbonic anhydrase 2, 1.84 µM; on Carbonic anhydrase 14, 11.5 µM; at Carbonic anhydrase 9 it was 5.03 µM. Further, the Ki at Carbonic anhydrase 13 is 10.5 µM; at Carbonic anhydrase 3 it was 3.58 µM; at Carbonic anhydrase 12 it was 4.72 µM; in test [2] it was 4.02 µM; on Carbonic anhydrase 6 it was 4.91 µM; at Carbonic anhydrase 15, 7.68 µM. The Ki on Carbonic anhydrase 4 was determined as 4.9 µM.

In the case of `CC(CCc1ccc(O)cc1)NCCc1ccc(O)c(O)c1` (centres undefined) [DOBUTAMINE], the Ki in test [1] turned out to be 0.73 µM; at Carbonic anhydrase 7, 4.3 µM; at Carbonic anhydrase 1 it was 1.92 µM; at Carbonic anhydrase 2 it was 0.48 µM; on Carbonic anhydrase 14, 12 µM; at Carbonic anhydrase 9, 9.82 µM. The Ki on Carbonic anhydrase 13 stood at 9.53 µM; on Carbonic anhydrase 3, 7.4 µM; on Carbonic anhydrase 12, 4.35 µM; in test [2], 0.89 µM; at Carbonic anhydrase 6, 9.47 µM; on Carbonic anhydrase 15, 0.39 µM. For the same compound, on Carbonic anhydrase 4, the Ki stood at 8.98 µM.

As for `Oc1ccc(/C=C/c2cc(O)cc(O)c2)cc1` [RESVERATROL], the inhibition constant Ki came out at 4.75 µM in test [1]; 4.35 µM on Carbonic anhydrase 7; 2.21 µM on Carbonic anhydrase 1; 2.77 µM at Carbonic anhydrase 2; 0.83 µM at Carbonic anhydrase 14; 0.81 µM on Carbonic anhydrase 9. The Ki on Carbonic anhydrase 13 came out at 4.09 µM; on Carbonic anhydrase 3 it was 9.09 µM; on Carbonic anhydrase 12, 0.95 µM; in test [2], 4.64 µM; on Carbonic anhydrase 6, 8.07 µM; at Carbonic anhydrase 15, 9.36 µM. This compound had an inhibitory constant (Ki) at Carbonic anhydrase 4 of 4.47 µM.
